Source: the supplement of paper PMC7017272
± gives the standard deviation of the averaged measurements. Each block holds one compound with its values, some of them ahead of it.

What was measured:
[1] = tested on: UT-SCC-24B; test: relative IC50 (midpoint of the fitted curve; maximal inhibition may be below 50%); higher = less potent; conditions: treatment time: 3 days
Procedure, shortened: (§1)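 Viability of HPV-negative HNSCC cell lines was measured by CellTiter-Glo 2.0 luminescence. Cells were seeded at 500 cells/well in 384-well plates on plastic, on Matrigel- or Myogel-coated wells (500 µg/mL), or embedded in Matrigel or Myogel plus rat collagen I, then given compounds at five 10-fold concentrations for 3 days, with signals normalised to vehicle (0.1% DMSO) and cell-killing control wells. Fitting of percent-inhibition dose–response curves in the FIMM pipeline yielded IC50, maximal inhibition and drug sensitivity score.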

[2] = tested on: UT-SCC-73; test: as above; conditions: treatment time: 3 days
Procedure, shortened: as §1

[3] = tested on: UT-SCC-14; test: as above; conditions: treatment time: 3 days
Procedure, shortened: as §1

[4] = tested on: UT-SCC-42A; test: as above; conditions: treatment time: 3 days
Procedure, shortened: as §1

[5] = tested on: UT-SCC-40; test: as above; conditions: treatment time: 3 days
Procedure, shortened: as §1

[6] = tested on: UT-SCC-81; test: as above; conditions: treatment time: 3 days
Procedure, shortened: as §1

[7] = tested on: UT-SCC-28; test: as above; conditions: treatment time: 3 days
Procedure, shortened: as §1

[8] = tested on: UT-SCC-42B; test: as above; conditions: treatment time: 3 days
Procedure, shortened: as §1

[9] = tested on: UT-SCC-44; test: as above; conditions: treatment time: 3 days
Procedure, shortened: as §1

[10] = tested on: UT-SCC-106A; test: as above; conditions: treatment time: 3 days
Procedure, shortened: as §1

[11] = tested on: UT-SCC-24A; test: relative IC50 (midpoint of the fitted curve; maximal inhibition may be below 50%); higher = less potent; conditions: treatment time: 3 days
Description: (§2)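 HNSCC cell lines (500 cells/well, 384-well) were cultured on plastic, on top of (2D) or embedded (3D) in Matrigel or human leiomyoma matrix Myogel (500 ug/mL; Myogel 3D mixed with rat collagen I). Cells were treated for 3 days with 5 ten-fold concentrations of each drug, and viability was read by CellTiter-Glo. Viability was normalised to DMSO (0% inhibition) and 100 uM benzethonium chloride (100% inhibition) controls and fitted with the FIMM DSRT pipeline to give IC50 (nM), maximal % inhibition and the drug sensitivity score (DSS). Suffixes _1/_2/_3 on drug names are replicates.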

[12] = tested on: UT-SCC-24A; test: maximal % inhibition of viability relative to DMSO; higher = stronger effect; conditions: treatment time: 3 days
Description: as §2

[13] = tested on: UT-SCC-24A; test: drug sensitivity score (DSS); higher = more sensitive; conditions: treatment time: 3 days
Description: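 HNSCC cell lines (500 cells/well, 384-well) were cultured on plastic, on top of (2D) or embedded (3D) in Matrigel or human leiomyoma matrix Myogel (500 ug/mL; Myogel 3D mixed with rat collagen I). Cells were treated for 3 days with 5 ten-fold concentrations of each drug, and viability was read by CellTiter-Glo. Suffixes _1/_2/_3 on drug names are replicates.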

[14] = tested on: UT-SCC-24B; test: drug sensitivity score (DSS); higher = more sensitive; extreme values may be limits of the assay; conditions: treatment time: 3 days
Procedure, shortened: as §1

[15] = tested on: UT-SCC-14; test: as above; conditions: treatment time: 3 days
Procedure, shortened: as §1

[16] = tested on: UT-SCC-8; test: relative IC50 (midpoint of the fitted curve; maximal inhibition may be below 50%); higher = less potent; conditions: culture condition: embedded in Myogel + collagen I; treatment time: 3 days
Procedure, shortened: as §1

[17] = culture condition: on top of Myogel
[18] = culture condition: on top of Matrigel
[19] = culture condition: plastic 2D (no matrix)
[20] = culture condition: embedded in Myogel + collagen I
[21] = culture condition: embedded in Matrigel

relative IC50 [1, 17]: 5.03 nM
relative IC50 [2, 18]: 1.92 nM
relative IC50 [2, 19]: 7.59 nM
relative IC50 [3, 18]: 6.41 nM
relative IC50 [4, 20]: 5.97 nM
relative IC50 [4, 18]: 15 nM
relative IC50 [4, 17]: 10.5 nM
relative IC50 [5, 21]: 4.61 nM
relative IC50 [5, 19]: 9.09 nM
relative IC50 [6, 20]: 2.53 nM
relative IC50 [6, 18]: 6.53 nM
relative IC50 [6, 17]: 6.12 nM
relative IC50 [6, 19]: 2.97 nM
relative IC50 [7, 20]: 6.89 nM
relative IC50 [8, 19]: 20.8 nM
relative IC50 [9, 20]: 6.3 nM
relative IC50 [9, 18]: 0.89 nM
relative IC50 [9, 17]: 1.1 nM
relative IC50 [10, 21]: 28.4 nM
relative IC50 [10, 17]: 8.1 nM
relative IC50 [11, 20]: 0.761 nM
relative IC50 [11, 17]: 10.4 nM
SMILES: CO[C@H]1C[C@@H]2CC[C@@H](C)[C@@](O)(O2)C(=O)C(=O)N2CCCC[C@H]2C(=O)O[C@H]([C@H](C)C[C@@H]2CC[C@@H](OCCO)[C@H](OC)C2)CC(=O)[C@H](C)/C=C(\C)[C@@H](O)[C@@H](OC)C(=O)[C@H](C)C[C@H](C)/C=C/C=C/C=C/1C [Everolimus]
maximal % inhibition of viability [12, 21]: 51.3 ± 40%
maximal % inhibition of viability [12, 20]: 33.2 ± 13%
maximal % inhibition of viability [12, 18]: 31.5 ± 13%
maximal % inhibition of viability [12, 17]: 26.8 ± 1.4%
maximal % inhibition of viability [12, 19]: 28.2 ± 2.9%
drug sensitivity score [13, 21]: 3.6 ± 6.2 DSS
drug sensitivity score [13, 20]: 6.43 ± 3 DSS
drug sensitivity score [13, 18]: 2.93 ± 2.3 DSS
drug sensitivity score [13, 17]: 2.57 ± 0.21 DSS
drug sensitivity score [13, 19]: 2.57 ± 0.25 DSS
drug sensitivity score [14, 21]: 1.17 ± 1.5 DSS
drug sensitivity score [14, 20]: 5.5 ± 2.1 DSS
drug sensitivity score [14, 18]: 1.93 ± 1.7 DSS
drug sensitivity score [14, 17]: 4.07 ± 1.6 DSS
drug sensitivity score [14, 19]: 2.43 ± 1.4 DSS
drug sensitivity score [15, 21]: 8.37 ± 3.1 DSS
drug sensitivity score [15, 20]: 10.2 ± 3.4 DSS
drug sensitivity score [15, 18]: 5.67 ± 2.2 DSS
drug sensitivity score [15, 17]: 7.77 ± 2.7 DSS
drug sensitivity score [15, 19]: 7.63 ± 2.4 DSS

relative IC50 [1, 21]: 522 nM
relative IC50 [1, 18]: 591 nM
relative IC50 [1, 17]: 2490 nM
relative IC50 [1, 19]: 227 nM
relative IC50 [2, 19]: > 9890 nM
relative IC50 [16]: > 9890 nM
relative IC50 [6, 20]: > 9890 nM
relative IC50 [7, 21]: > 9890 nM
relative IC50 [8, 21]: 2110 nM
relative IC50 [8, 17]: > 9890 nM
relative IC50 [8, 19]: > 9890 nM
relative IC50 [9, 21]: > 9890 nM
relative IC50 [9, 18]: > 9890 nM
relative IC50 [10, 21]: 2070 nM
relative IC50 [10, 17]: > 9890 nM
relative IC50 [11, 20]: 1560 nM
relative IC50 [11, 18]: 860 nM
relative IC50 [11, 17]: > 9890 nM
relative IC50 [11, 19]: 855 nM
SMILES: C#Cc1cccc(Nc2ncnc3cc(OCCOC)c(OCCOC)cc23)c1 [Erlotinib]
maximal % inhibition of viability [12, 21]: 65.2 ± 8%
maximal % inhibition of viability [12, 20]: 27.5 ± 6.3%
maximal % inhibition of viability [12, 18]: 50.9 ± 7.2%
maximal % inhibition of viability [12, 17]: 7.53 ± 1.6%
maximal % inhibition of viability [12, 19]: 30.6 ± 5%
drug sensitivity score [13, 21]: 8.87 ± 3.6 DSS
drug sensitivity score [13, 20]: 1.63 ± 1 DSS
drug sensitivity score [13, 18]: 5.7 ± 1.7 DSS
drug sensitivity score [13, 17]: 0 DSS
drug sensitivity score [13, 19]: 3.03 ± 0.93 DSS
drug sensitivity score [14, 21]: 11.3 ± 1 DSS
drug sensitivity score [14, 20]: 8.03 ± 3 DSS
drug sensitivity score [14, 18]: 10.4 ± 0.51 DSS
drug sensitivity score [14, 17]: 3.97 ± 0.21 DSS
drug sensitivity score [14, 19]: 15.2 ± 1.4 DSS
drug sensitivity score [15, 21]: 1.73 ± 0.57 DSS
drug sensitivity score [15, 20]: 0.0333 ± 0.058 DSS
drug sensitivity score [15, 18]: 0.4 ± 0.69 DSS
drug sensitivity score [15, 17]: 0.733 ± 1.3 DSS
drug sensitivity score [15, 19]: 0.9 ± 1.6 DSS

relative IC50 [1, 21]: 0.965 nM
relative IC50 [1, 17]: 2.6 nM
relative IC50 [1, 19]: 2.95 nM
relative IC50 [2, 20]: 26.3 nM
relative IC50 [2, 17]: 12 nM
relative IC50 [2, 19]: 31.8 nM
relative IC50 [3, 21]: 0.687 nM
relative IC50 [3, 20]: 0.9 nM
relative IC50 [3, 18]: 1.24 nM
relative IC50 [3, 17]: 1.06 nM
relative IC50 [4, 20]: 3.22 nM
relative IC50 [4, 18]: 2.37 nM
relative IC50 [4, 17]: 2.33 nM
relative IC50 [4, 19]: 2.24 nM
relative IC50 [5, 19]: > 98.9 nM
relative IC50 [6, 20]: 2.71 nM
relative IC50 [6, 18]: 1.95 nM
relative IC50 [6, 17]: 1.55 nM
relative IC50 [6, 19]: 1.4 nM
relative IC50 [7, 21]: 2.04 nM
relative IC50 [7, 18]: 1.16 nM
relative IC50 [7, 19]: 1.2 nM
relative IC50 [8, 17]: > 98.9 nM
relative IC50 [9, 20]: 2.41 nM
relative IC50 [9, 18]: 1.79 nM
relative IC50 [9, 19]: 1.88 nM
relative IC50 [11, 20]: 1.86 nM
relative IC50 [11, 17]: 2.01 nM
SMILES: CO[C@H]1C[C@@H]2CC[C@@H](C)[C@@](O)(O2)C(=O)C(=O)N2CCCC[C@H]2C(=O)O[C@H]([C@H](C)C[C@@H]2CC[C@@H](O)[C@H](OC)C2)CC(=O)[C@H](C)/C=C(\C)[C@@H](O)[C@@H](OC)C(=O)[C@H](C)C[C@H](C)/C=C/C=C/C=C/1C [Sirolimus]
maximal % inhibition of viability [12, 21]: 69 ± 4.9%
maximal % inhibition of viability [12, 20]: 77.4 ± 8.1%
maximal % inhibition of viability [12, 18]: 71.57 ± 0.55%
maximal % inhibition of viability [12, 17]: 65.5 ± 2.4%
maximal % inhibition of viability [12, 19]: 67.9 ± 2.4%
drug sensitivity score [13, 21]: 9 ± 4.9 DSS
drug sensitivity score [13, 20]: 16.4 ± 1.2 DSS
drug sensitivity score [13, 18]: 12.7 ± 3.7 DSS
drug sensitivity score [13, 17]: 13.7 ± 1.2 DSS
drug sensitivity score [13, 19]: 12.9 ± 2.5 DSS
drug sensitivity score [14, 21]: 22.9 ± 0.36 DSS
drug sensitivity score [14, 20]: 19.5 ± 4 DSS
drug sensitivity score [14, 18]: 18.9 ± 4.8 DSS
drug sensitivity score [14, 17]: 17.2 ± 3.4 DSS
drug sensitivity score [14, 19]: 16.8 ± 4.1 DSS
drug sensitivity score [15, 21]: 19.3 ± 2.1 DSS
drug sensitivity score [15, 20]: 15.4 ± 2.7 DSS
drug sensitivity score [15, 18]: 15.6 ± 3.3 DSS
drug sensitivity score [15, 17]: 15.4 ± 3.1 DSS
drug sensitivity score [15, 19]: 15.1 ± 3.8 DSS
